Results on one compound are retold here after paper PMC3890288, “Toxicity of Functional Nano-Micro Zinc Oxide Tetrapods: Impact of Cell Culture Conditions, Cellular Age and Material Properties” (PLoS ONE, 2014).

Test [1] has as its system normal human dermal fibroblasts (NHDF). The test is described as follows: MTT cell viability (cytotoxicity) assay on NHDF. It is filed as cell-based. The following applies: NHDF P6–P9, 50000 cells/cm^2, 24 h treatment. The procedure: Normal human dermal fibroblasts (NHDF) (PromoCell, C12300) were cultured in Quantum 333 (PAA, U15-813) supplemented with 1% (v/v) penicillin/streptomycin (PAA, P11–010). NHDF are human primary cells which were isolated from the dermis of juvenile foreskin or adult skin with different origins (PromoCell). For stock cultures, 750000 cells in 20 ml medium were seeded weekly into a T75 flask (Sarstedt) and kept at 37°C and 5% CO2 in a humidified atmosphere. The medium was changed every two to three days. For sub-culturing, cells were trypsinized by Trypsin/EDTA (PAA, L11-659). Cells were counted under the microscope.
Powder of ZnO-T was scaled and brought for each experiment fresh into dispersion with culture medium at an initial concentration of 10 mg/ml. […]
The MTT assay was used to estimate the viability of cells by measuring the production of formazan mainly through the activity of cellular mitochondrial dehydrogenase. Cell viability was determined accordingly as described in already published paper, [64]. […] Production of formazan by viable cells was estimated after 90 min (37°C, 5% CO2) by measuring the absorbance at a wavelength of 570 nm (photometer 340 ATTC, SLT Lab instruments, Germany). […]
NHDF cells (passage numbers: P10–P14) were seeded into clear flat 96-well microtiter plates (Falcon® 3072) at a cell density of 50.000 cells/cm^2. […] Cell viability was analysed 24 h later. […]

Test [2] shares this test system. The test is described as follows: MTT cell viability (cytotoxicity) assay on NHDF. It counts as cell-based. Particulars: 24 h treatment, expressed as Zn, read-out: ZnCl2 EC50±SE as Zn (converted).

Read-outs that look alike come from different tables or passages of the source.

Regarding `[Cl-].[Cl-].[Zn+2]` [ZnCl2], in test [1], the “EC50±standard error” value came to 36 ± 1.4 µg/mL. The EC50 (as a rule, the concentration at which the effect is half-maximal) in test [1] (expressed as zinc, read-out: EC50±standard error in Zn^2+) is 130 ± 10 µM; in test [2] (P11–P15, 25000 cells/cm^2), 100 µM; in test [2] (P11–P15, 100000 cells/cm^2) it was 130 µM; in test [2] (P22–P26, 25000 cells/cm^2) it was 110 µM; in test [2] (P22–P26, 100000 cells/cm^2) it was 120 µM.
